Like-named read-outs stand apart in the source and are kept apart here.

The target of experiment [1] is T1, off-target kinases (Homo sapiens, UniProt Q9H093).
T1 sequence (Q9H093 1-628): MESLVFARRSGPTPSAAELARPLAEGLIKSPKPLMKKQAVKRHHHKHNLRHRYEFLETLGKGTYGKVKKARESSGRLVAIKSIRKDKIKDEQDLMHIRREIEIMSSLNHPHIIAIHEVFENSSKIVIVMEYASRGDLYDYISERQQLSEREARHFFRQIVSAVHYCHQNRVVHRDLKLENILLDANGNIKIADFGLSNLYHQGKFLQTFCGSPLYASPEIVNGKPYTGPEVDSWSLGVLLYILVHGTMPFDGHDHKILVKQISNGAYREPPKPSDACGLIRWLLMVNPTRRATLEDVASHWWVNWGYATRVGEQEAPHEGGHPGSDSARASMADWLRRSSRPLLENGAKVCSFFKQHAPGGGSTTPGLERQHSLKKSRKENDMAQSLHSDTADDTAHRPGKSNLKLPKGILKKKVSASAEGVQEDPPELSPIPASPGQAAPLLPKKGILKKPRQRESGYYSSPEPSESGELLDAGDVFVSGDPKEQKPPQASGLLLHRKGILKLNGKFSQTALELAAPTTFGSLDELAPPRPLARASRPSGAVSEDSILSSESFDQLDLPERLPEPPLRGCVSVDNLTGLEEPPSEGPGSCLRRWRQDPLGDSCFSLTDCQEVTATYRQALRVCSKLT
In words: SelectScreen Kinase Profiling, single point inhibition and IC50 for off-target kinases. The format is biochemical. The note with it: NUAK2, LanthaScreen Binding. (In TR-FRET formats the signal depends on donor and acceptor labels being close together.)

Experiment [2] concerns the target off-target kinases (Homo sapiens, UniProt P36888, D835Y). Described as above. The experiment is classed as biochemical. The note with it: FLT3 D835Y, ATP Km app, ZLYTE.

One may read the inhibition as the relative decrease from the control value, in per cent. On to `N#Cc1cc(-c2ncnc(Nc3ccc(N4CCN(C5COC5)CC4)cc3)n2)ccc1OC1CCOCC1` [Compound 1, 5-(4-((4-(4-(oxetan-3-yl)piperazin-1-yl)phenyl)amino)-1,3,5-triazin-2-yl)-2-((tetrahydro-2H-pyran-4-yl)oxy)benzonitrile], for which the inhibition on off-target kinases [1] (read-out: % Inhibition 1) stood at 54%; at off-target kinases [1] (read-out: % Inhibition 2), 52%; at off-target kinases [1] (read-out: % Inhibition Avg) it was 53%; on off-target kinases [2] (read-out: % Inhibition 1) it was 83%; at off-target kinases [2] (read-out: % Inhibition 2), 81%; on off-target kinases [2] (read-out: % Inhibition Avg) it was 82%.

The values above are taken from US11572590B2, “Methods for evaluating tumor cell spheroids using 3D microfluidic cell culture device” (Dana-Farber Cancer Institute, Inc., priority 2017, dated 2023).
